According to publication PMC2365111, “Cytotoxicity of Poly(Phenolic)Sulfonates and Their Sodium Salts in L1210 Lymphoid Leukemia Cells” (Metal-Based Drugs, 1998):

Legend:
IMP dehydrogenase = IMP dehydrogenase activity, L1210; type: biochemical, mouse; settings: 25 μM, 60 min, N=6
From the text: (§1) CYTOTOXlCITY OF POLY(PHENOLIC)SULFONATES AND THEIR SODIUM SALTS IN L1210 LYMPHOID LEUKEMIA CELLS Fei Wang, Amy E. Warren, Cheryl R. Barnes and Iris H. Hall* Division of Medicinal Chemistry and Natural Products University of North Carolina Chapel Hill, N.C. […] Because ofthese properties it was surmised that these poly(phenolic)sulfonated compounds may have antineoplastic activity. METHODS Source of Compounds Test compounds were supplied by GeneLabs, Inc. [Redwood City, CA [Table 1]. Radioisotopes were obtained from New England Nuclear [Dupont, Boston, MA]. Substrates and co-factors were purchased om Sigma Chemical Co., [St Louis, MO]. Pentosan sulfate and other antineoplastic standards were obtained from Sigma Chemical Co. Tumor lines were obtained from American Type Culture Collection [Rockville, MD]. 147 Vol. 5, No. 3, 1998 Cytotoxicity ofSodium Poly(Phenolic)Sulfonates in L1210 Lymphoid Leukemia Cells Table 1 Structures of Poly(phenolic)sulfonate Compounds O2R" n Compound R' R" n MW # G1-2041 H OH 8 1489.46 G1-2029 H OH 6 1117.09 G1-2030 H OH 4 744.73 GI-2021 CH3 ONa 8 1777.5 G1-2057 CH3 ONa 4 888.75 GI-2158 CH3 ONa 6 1333.13 GI-2063 OCH3 ONa 8 2001.65 G1-2042 OAc ONa 8 2017.73 Cytotoxicity Poly(phenolic)sulfonates were tested for cytotoxic activity by homogenizing drug in 0.05% Tween 80/H20 to give a mg/ml stock concentration. These solutions were sterilized by passing them through an acrodisc ([…]). The following cell lines were maintained by literature techniques: murine L1210 lymphoid leukemia, P-388 lymphocytic leukemia, rat UMR 106 osteosarcoma, human Tmolt3 acute lymphoblastic T cell leukemia, HUT-8 lymphoma, HeLa-S suspended cervical carcinoma, HeLa solid cervical carcinoma, KB epidermoid nasopharynx, A431 epidermoid carcinoma, colorectal adenocarcinoma SW480, HCT-8 ileocecal adenocarcinoma, lung bronchogenic MB-9812, A549 lung carcinoma, and glioma HS683. Geran et al.'s protocol was used to assess the cytotoxicity of the compounds and standards in each cell line. Cell numbers were determined by the trypan blue exclusion technique. Solid tumor cytotoxicity was determined by Leibovitz et al. 's method utilizing crystal violeeOH and read at 562 nm (Molecular Devices). Values for cytotoxicity were expressed as EDs0 g/ml, i.e. the concentration ofthe compound inhibiting 50% ofcell growth. A value of less than 4 µg/ml was required for significant activity ofgrowth inhibition. Incorporation Studies Incorporation of labeled precursors into 3H-DNA, 3H -RNA and 3H -protein for 10 L1210 cells was obtained. The concentration response for inhibition of DNA, RNA and protein synthesis of the compounds at 25, 50 and 100 l.tM was determined for 60 min incubations. Incorporation of 14C -glycine (53.0 mCi/mmol) into purines was obtained by the method of Cadman et al.[12]. Incorporation of 4C- formate (53.0 mCi/mmol) into pyrimidines was determined by the method of Christopherson et al.[13]. […] DNA polymerase Ot activity was determined in cytoplasmic extracts isolated by Eichler et aL's method. […] Messenger-, ribosomal- and transfer-RNA polymerase enzymes were isolated with different concentrations of ammonium sulfate; individual RNA polymerase activities were determined using 3H -UTP 16,17]. Ribonucleoside reductase activity was measured using 4C -CDP with dithioerythritol. […]

Thymidylate synthetase = molecular target: T1, Thymidylate synthetase (Mus musculus, UniProt P07607); assay: Thymidylate synthetase activity, L1210; type: biochemical; settings: 60 min, N=6
T1 construct: preparing the appropriate L1210 cell homogenates or subcellular fractions; endogenous in cells; host or cells: L1210 murine lymphoid leukemia cells, homogenate or subcellular fraction
T1 sequence (P07607 whole entry): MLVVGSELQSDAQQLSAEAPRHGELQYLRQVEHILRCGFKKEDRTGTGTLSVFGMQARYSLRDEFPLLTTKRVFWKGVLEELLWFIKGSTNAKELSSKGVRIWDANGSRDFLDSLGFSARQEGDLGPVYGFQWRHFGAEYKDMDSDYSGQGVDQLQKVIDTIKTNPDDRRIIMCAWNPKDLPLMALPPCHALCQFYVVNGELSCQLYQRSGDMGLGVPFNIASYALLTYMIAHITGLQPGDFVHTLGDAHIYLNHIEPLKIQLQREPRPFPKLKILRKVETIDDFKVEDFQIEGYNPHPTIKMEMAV
From the text: (§2) CYTOTOXlCITY OF POLY(PHENOLIC)SULFONATES AND THEIR SODIUM SALTS IN L1210 LYMPHOID LEUKEMIA CELLS Fei Wang, Amy E. Warren, Cheryl R. Barnes and Iris H. Hall* Division of Medicinal Chemistry and Natural Products University of North Carolina Chapel Hill, N.C. […] Because ofthese properties it was surmised that these poly(phenolic)sulfonated compounds may have antineoplastic activity. METHODS Source of Compounds Test compounds were supplied by GeneLabs, Inc. [Redwood City, CA [Table 1]. Radioisotopes were obtained from New England Nuclear [Dupont, Boston, MA]. Substrates and co-factors were purchased om Sigma Chemical Co., [St Louis, MO]. Pentosan sulfate and other antineoplastic standards were obtained from Sigma Chemical Co. Tumor lines were obtained from American Type Culture Collection [Rockville, MD]. 147 Vol. 5, No. 3, 1998 Cytotoxicity ofSodium Poly(Phenolic)Sulfonates in L1210 Lymphoid Leukemia Cells Table 1 Structures of Poly(phenolic)sulfonate Compounds O2R" n Compound R' R" n MW # G1-2041 H OH 8 1489.46 G1-2029 H OH 6 1117.09 G1-2030 H OH 4 744.73 GI-2021 CH3 ONa 8 1777.5 G1-2057 CH3 ONa 4 888.75 GI-2158 CH3 ONa 6 1333.13 GI-2063 OCH3 ONa 8 2001.65 G1-2042 OAc ONa 8 2017.73 Cytotoxicity Poly(phenolic)sulfonates were tested for cytotoxic activity by homogenizing drug in 0.05% Tween 80/H20 to give a mg/ml stock concentration. These solutions were sterilized by passing them through an acrodisc ([…]). The following cell lines were maintained by literature techniques: murine L1210 lymphoid leukemia, P-388 lymphocytic leukemia, rat UMR 106 osteosarcoma, human Tmolt3 acute lymphoblastic T cell leukemia, HUT-8 lymphoma, HeLa-S suspended cervical carcinoma, HeLa solid cervical carcinoma, KB epidermoid nasopharynx, A431 epidermoid carcinoma, colorectal adenocarcinoma SW480, HCT-8 ileocecal adenocarcinoma, lung bronchogenic MB-9812, A549 lung carcinoma, and glioma HS683. Geran et al.'s protocol was used to assess the cytotoxicity of the compounds and standards in each cell line. Cell numbers were determined by the trypan blue exclusion technique. Solid tumor cytotoxicity was determined by Leibovitz et al. 's method utilizing crystal violeeOH and read at 562 nm (Molecular Devices). Values for cytotoxicity were expressed as EDs0 g/ml, i.e. the concentration ofthe compound inhibiting 50% ofcell growth. A value of less than 4 µg/ml was required for significant activity ofgrowth inhibition. Incorporation Studies Incorporation of labeled precursors into 3H-DNA, 3H -RNA and 3H -protein for 10 L1210 cells was obtained. The concentration response for inhibition of DNA, RNA and protein synthesis of the compounds at 25, 50 and 100 l.tM was determined for 60 min incubations. Incorporation of 14C -glycine (53.0 mCi/mmol) into purines was obtained by the method of Cadman et al.[12]. Incorporation of 4C- formate (53.0 mCi/mmol) into pyrimidines was determined by the method of Christopherson et al.[13]. Enzyme Assays Inhibition of various enzyme activities was performed by first preparing the appropriate L1210 cell homogenates or subcellular fractions, then adding the drug to be tested during the enzyme assay. For the concentration response studies, inhibition of enzyme activity was determined at 25, 50 and 100 l.tM of compounds G1-2021, G1-2029, GI-2041 and G1-2063 after 60 min incubations. DNA polymerase Ot activity was determined in cytoplasmic extracts isolated by Eichler et aL's method. The DNA polymerase assay was described by Sedwick et al.[15] using 3H-TTP. Messenger-, ribosomal- and transfer-RNA polymerase enzymes were isolated with different concentrations of ammonium sulfate; individual RNA polymerase activities were determined using 3H -UTP 16,17]. Ribonucleoside reductase activity was measured using 4C -CDP with dithioerythritol. The deoxyribonucleotides 4C -dCDP were separated from the ribonucleotides by TLC on PEI plates. […]

[1] = test system: murine L1210 lymphoid leukemia; type: cell-based, mouse; settings: converted from μg/ml
From the text: as §2

[2] = molecular target: T2, Carbamyl phosphate synthetase (Mus musculus, UniProt B2RQC6); assay: Carbamyl phosphate synthetase activity, L1210; type: biochemical; settings: 60 min, N=6
T2 construct: preparing the appropriate L1210 cell homogenates or subcellular fractions; endogenous in cells; host or cells: L1210 murine lymphoid leukemia cells, homogenate or subcellular fraction
T2 sequence (B2RQC6 whole entry): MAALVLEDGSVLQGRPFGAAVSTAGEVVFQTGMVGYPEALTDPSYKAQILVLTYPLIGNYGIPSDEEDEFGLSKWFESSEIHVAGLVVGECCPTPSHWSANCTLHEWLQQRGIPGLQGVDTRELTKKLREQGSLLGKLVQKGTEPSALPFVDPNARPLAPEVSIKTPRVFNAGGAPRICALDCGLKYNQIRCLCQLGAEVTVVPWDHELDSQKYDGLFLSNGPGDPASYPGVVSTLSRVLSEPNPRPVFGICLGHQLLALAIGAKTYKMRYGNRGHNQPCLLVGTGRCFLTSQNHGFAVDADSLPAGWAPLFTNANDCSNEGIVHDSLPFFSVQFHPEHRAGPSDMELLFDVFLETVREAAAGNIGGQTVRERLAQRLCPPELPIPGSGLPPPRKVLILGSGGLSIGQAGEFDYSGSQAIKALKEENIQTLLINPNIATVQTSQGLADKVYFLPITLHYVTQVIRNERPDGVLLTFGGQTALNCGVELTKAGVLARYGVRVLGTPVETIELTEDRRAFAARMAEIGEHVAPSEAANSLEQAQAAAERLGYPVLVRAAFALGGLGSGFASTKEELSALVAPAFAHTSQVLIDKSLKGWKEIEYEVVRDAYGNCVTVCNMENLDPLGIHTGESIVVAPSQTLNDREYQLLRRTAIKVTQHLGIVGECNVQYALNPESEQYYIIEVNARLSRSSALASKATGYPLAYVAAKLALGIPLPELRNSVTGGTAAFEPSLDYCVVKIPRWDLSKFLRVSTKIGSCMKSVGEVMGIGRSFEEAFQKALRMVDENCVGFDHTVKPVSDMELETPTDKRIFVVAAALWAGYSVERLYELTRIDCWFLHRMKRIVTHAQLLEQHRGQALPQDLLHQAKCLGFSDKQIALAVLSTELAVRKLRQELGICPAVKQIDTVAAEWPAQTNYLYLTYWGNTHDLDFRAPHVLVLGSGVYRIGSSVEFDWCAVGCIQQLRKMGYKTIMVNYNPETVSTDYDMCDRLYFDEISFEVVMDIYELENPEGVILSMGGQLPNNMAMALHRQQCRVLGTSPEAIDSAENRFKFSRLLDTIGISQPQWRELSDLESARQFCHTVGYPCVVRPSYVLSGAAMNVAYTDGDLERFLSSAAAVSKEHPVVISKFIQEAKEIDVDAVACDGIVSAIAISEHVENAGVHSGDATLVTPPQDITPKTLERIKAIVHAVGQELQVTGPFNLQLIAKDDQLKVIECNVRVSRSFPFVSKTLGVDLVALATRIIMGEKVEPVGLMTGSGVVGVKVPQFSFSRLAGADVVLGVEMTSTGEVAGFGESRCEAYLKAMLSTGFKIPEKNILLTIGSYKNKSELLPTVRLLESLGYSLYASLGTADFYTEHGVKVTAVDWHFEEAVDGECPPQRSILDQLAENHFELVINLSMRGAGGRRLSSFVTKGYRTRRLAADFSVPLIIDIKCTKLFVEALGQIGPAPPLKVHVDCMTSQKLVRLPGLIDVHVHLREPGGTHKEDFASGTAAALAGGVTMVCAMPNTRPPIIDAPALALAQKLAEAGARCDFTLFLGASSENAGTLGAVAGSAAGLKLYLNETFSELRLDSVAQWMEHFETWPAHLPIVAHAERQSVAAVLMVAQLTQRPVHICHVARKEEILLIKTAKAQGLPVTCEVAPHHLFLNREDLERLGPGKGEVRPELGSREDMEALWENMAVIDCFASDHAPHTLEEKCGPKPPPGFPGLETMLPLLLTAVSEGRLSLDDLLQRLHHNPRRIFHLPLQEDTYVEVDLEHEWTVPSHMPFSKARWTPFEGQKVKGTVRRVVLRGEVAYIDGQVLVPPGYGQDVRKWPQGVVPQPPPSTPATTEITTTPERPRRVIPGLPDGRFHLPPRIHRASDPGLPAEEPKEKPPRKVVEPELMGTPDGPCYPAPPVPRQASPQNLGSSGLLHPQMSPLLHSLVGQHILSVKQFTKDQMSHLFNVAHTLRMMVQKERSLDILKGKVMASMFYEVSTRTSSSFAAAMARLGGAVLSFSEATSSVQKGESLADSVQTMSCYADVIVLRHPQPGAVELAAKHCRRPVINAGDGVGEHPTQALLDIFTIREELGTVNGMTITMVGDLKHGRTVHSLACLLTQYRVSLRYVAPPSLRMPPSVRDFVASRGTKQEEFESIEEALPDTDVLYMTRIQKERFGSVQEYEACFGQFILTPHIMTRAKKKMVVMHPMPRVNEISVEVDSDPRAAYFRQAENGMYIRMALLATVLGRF
From the text: as §2

L1210 DNA = L1210 DNA strand scission, alkaline-sucrose gradient; type: cell-based, mouse; settings: 100 μM, 24 hr
From the text: (§3) CYTOTOXlCITY OF POLY(PHENOLIC)SULFONATES AND THEIR SODIUM SALTS IN L1210 LYMPHOID LEUKEMIA CELLS Fei Wang, Amy E. Warren, Cheryl R. Barnes and Iris H. Hall* Division of Medicinal Chemistry and Natural Products University of North Carolina Chapel Hill, N.C. […] Because ofthese properties it was surmised that these poly(phenolic)sulfonated compounds may have antineoplastic activity. METHODS Source of Compounds Test compounds were supplied by GeneLabs, Inc. [Redwood City, CA [Table 1]. Radioisotopes were obtained from New England Nuclear [Dupont, Boston, MA]. Substrates and co-factors were purchased om Sigma Chemical Co., [St Louis, MO]. […] Cell numbers were determined by the trypan blue exclusion technique. Solid tumor cytotoxicity was determined by Leibovitz et al. 's method utilizing crystal violeeOH and read at 562 nm (Molecular Devices). Values for cytotoxicity were expressed as EDs0 g/ml, i.e. the concentration ofthe compound inhibiting 50% ofcell growth. […] Incorporation of 4C- formate (53.0 mCi/mmol) into pyrimidines was determined by the method of Christopherson et al.[13]. […] DNA polymerase Ot activity was determined in cytoplasmic extracts isolated by Eichler et aL's method. […] Messenger-, ribosomal- and transfer-RNA polymerase enzymes were isolated with different concentrations of ammonium sulfate; individual RNA polymerase activities were determined using 3H -UTP 16,17]. […]

mRNA polymerase = molecular target: T3, mRNA polymerase (Mus musculus, UniProt P08775); assay: Messenger-RNA polymerase activity, L1210; type: biochemical; settings: 25 μM, 60 min, N=6
T3 construct: Messenger-, ribosomal- and transfer-RNA polymerase enzymes were isolated with different concentrations of ammonium sulfate; endogenous in cells; host or cells: L1210 murine lymphoid leukemia cells, ammonium sulfate fraction
From the text: as §3, with “MO]. Pentosan sulfate and other antineoplastic standards were obtained from Sigma Chemical Co. Tumor lines were obtained from American Type Culture Collection [Rockville, MD].” for “MO].”, “16,17]. Ribonucleoside reductase activity was measured using 4C -CDP with dithioerythritol.” for “16,17].”

[3] = test system: colorectal adenocarcinoma SW480; assay: Cytotoxicity, SW480 growth; type: cell-based, human
From the text: as §1, with “Geran et al.'s protocol was used to assess the cytotoxicity of the compounds and standards in each cell line.” left out, “A value of less than 4 µg/ml was required for significant activity ofgrowth inhibition. Incorporation Studies Incorporation of labeled precursors into 3H-DNA, 3H -RNA and 3H -protein for 10 L1210 cells was obtained. The concentration response for inhibition of DNA, RNA and protein synthesis of the compounds at 25, 50 and 100 l.tM was determined for 60 min incubations. Incorporation of 14C -glycine (53.0 mCi/mmol) into purines was obtained by the method of Cadman et al.[12].” left out

[4] = test system: HeLa solid cervical carcinoma; assay: Cytotoxicity, solid HeLa growth; type: cell-based, human
From the text: as §3

Dihydrofolate reductase = molecular target: T4, Dihydrofolate reductase (Mus musculus, UniProt P00375); assay: Dihydrofolate reductase activity, L1210; type: biochemical
T4 construct: preparing the appropriate L1210 cell homogenates or subcellular fractions; endogenous in cells; host or cells: L1210 murine lymphoid leukemia cells, homogenate or subcellular fraction
T4 sequence (P00375 1-187): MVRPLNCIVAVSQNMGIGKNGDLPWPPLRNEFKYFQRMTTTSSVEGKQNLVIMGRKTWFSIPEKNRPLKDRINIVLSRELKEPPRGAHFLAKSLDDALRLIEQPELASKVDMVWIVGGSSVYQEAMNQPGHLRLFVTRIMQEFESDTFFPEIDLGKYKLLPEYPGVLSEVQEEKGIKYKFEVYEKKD
From the text: as §2

Thymidine kinase = Thymidine kinase activity, L1210; type: biochemical, mouse; settings: 60 min, N=6
From the text: as §2

[5] = molecular target: T5, Aspartate transcarbamylase (Mus musculus, UniProt B2RQC6); assay: Aspartate transcarbamylase activity, L1210; type: biochemical; settings: 60 min, N=6
T5 construct: preparing the appropriate L1210 cell homogenates or subcellular fractions; endogenous in cells; host or cells: L1210 murine lymphoid leukemia cells, homogenate or subcellular fraction
T5 sequence (B2RQC6 whole entry): as the sequence (B2RQC6 whole entry) above
From the text: as §2

DNA polymerase α = molecular target: T6, DNA polymerase α (Mus musculus, UniProt P33609); assay: DNA polymerase alpha activity, L1210 cytoplasmic extracts; type: biochemical; settings: for DNA polymerase α: 60 min, N=6
T6 construct: endogenous in cells; host or cells: L1210 murine lymphoid leukemia cells, cytoplasmic extract
From the text: as §2

[6] = concentration inhibiting 50% of cell growth

For COc1c2cc(S(=O)(=O)[O-])cc1Cc1cc(S(=O)(=O)[O-])cc(c1OC)Cc1cc(S(=O)(=O)[O-])cc(c1OC)Cc1cc(S(=O)(=O)[O-])cc(c1OC)Cc1cc(S(=O)(=O)[O-])cc(c1OC)Cc1cc(S(=O)(=O)[O-])cc(c1OC)Cc1cc(S(=O)(=O)[O-])cc(c1OC)Cc1cc(S(=O)(=O)[O-])cc(c1OC)C2.[Na+].[Na+].[Na+].[Na+].[Na+].[Na+].[Na+].[Na+] [GI-2021], the IMP dehydrogenase (IMP dehydrogenase) was 124+4% of Control, the Thymidylate synthetase (Thymidylate synthetase; 25 μM) was 97+6% of Control and the Thymidylate synthetase (Thymidylate synthetase; 50 μM) was 88+5% of Control. The Thymidylate synthetase (Thymidylate synthetase; 100 μM) was 82+4% of Control, the “ED50 converted to” value [1] was 777 nM and the Carbamyl phosphate synthetase ([2]; 25 μM) was 94+5% of Control. The Carbamyl phosphate synthetase ([2]; 50 μM) was 89+5% of Control, the “L1210 DNA fragmentation, in words” value (L1210 DNA) was “more evident” and the mRNA polymerase (mRNA polymerase) was 99+5% of Control. For the same molecule, the “activity, in words” value [3] was “active”, the ED50 [3, 6] was “less than 2 μg/ml” and the “activity, in words” value [4] was “effective”. The ED50 [4, 6] was 1.97 µg/mL, the “dihydrofolate reductase activity reduced” value (Dihydrofolate reductase; 100 μM after hr) was 24% and the Dihydrofolate reductase (Dihydrofolate reductase; 100 μM, 60 min, N=6) was 76+4% of Control. For the same molecule, the Thymidine kinase (Thymidine kinase; 25 μM) was 112+7% of Control, the Thymidine kinase (Thymidine kinase; 50 μM) was 96+5% of Control and the Thymidine kinase (Thymidine kinase; 100 μM) was 76+4% of Control. The Aspartate transcarbamylase ([5]; 25 μM) was 101+6% of Control, the Aspartate transcarbamylase ([5]; 50 μM) was 100+5% of Control and the Aspartate transcarbamylase ([5]; 100 μM) was 98+4% of Control. The “DNA polymerase α” value (DNA polymerase α; 25 μM) was 76+5% of Control, the “DNA polymerase activity time course, in words” value (DNA polymerase α; 50 μM over 2 hr) was “activity remained suppressed at 60 and 90 min” and the “DNA polymerase α” value (DNA polymerase α; 100 μM) was 52+4% of Control.
